Experimental data: ChEMBL document CHEMBL3714740, “alpha-amino acid derivatives and medicaments containing the same as an active ingredient” (2011)
pIC50: −log10 of the molar value. Active and inactive are the calls of the source. The calls are words filed in the database; no cut-off is given here.

Assays:
SW-620 = assay: Antitumor activity against human SW620 cells xenografted in nude Balb/c mouse assessed as inhibition of tumor volume at 100 mg/kg administered orally using gastric tube once daily for 17 days starting at mean tumor volume of 200 to 250 mm3; format: functional, organism-based
DU-145 = assay: Antitumor activity against human DU145 cells xenografted in nude Balb/c mouse assessed as inhibition of tumor volume at 100 mg/kg administered orally using gastric tube once daily for 14 days starting at mean tumor volume of 200 to 250 mm3; format: functional, organism-based; conditions: Prostate
[1] = Antiproliferative activity against human SW620 cells assessed as inhibition of cell proliferation incubated for 4 days by CCK8 assay; format: functional, cell-based; conditions: SW-620, 96 h

Row | Structure (SMILES) | inhibition (SW-620) | inhibition (DU-145) | pIC50 [1]
1 | CNC(=O)c1cc(NC2(C(=O)Nc3nc4ccc5[nH]ncc5c4s3)CC2)ccc1Cl | Active | Active | –
2 | CC(C)(Nc1ccc(Cl)c(OCC(O)CO)c1)C(=O)Nc1nc2c(C(F)(F)F)cc3[nH]ncc3c2s1 (configuration not stated) | – | Active | –
3 | CCNC(=O)c1cc(NC(C)(C)C(=O)Nc2nc3c(C(F)(F)F)cc4[nH]ncc4c3s2)ccc1Cl | – | Active | –
4 | CC(C)(Nc1ccc(Cl)cc1)C(=O)Nc1nc2ccc3[nH]ncc3c2s1 | Active | Active | –
5 | CC(C)(C)C(=O)Nc1cc(NC(C)(C)C(=O)Nc2nc3ccc4[nH]ncc4c3s2)ccc1Cl | – | – | 5.57
